We go through six molecules from patent US20240174636A1, “NOVEL INDOLEAMINE 2,3-DIOXYGENASE INHIBITORS, PROCESSES FOR THE PREPARATION THEREOF AND PHARMACEUTICAL COMPOSITIONS COMPRISING THE SAME” (YUHAN CORPORATION, priority 2021, published 2024).

Data set [1] in a line: Pharmacokinetics through oral administration in normal rats. In kind it is in vivo. Conditions: 10 mg/5 mL/kg; for Maximum plasma concentration: suspension in 0.5% methyl cellulose containing 0.2% Tween 80. The procedure: The pharmacokinetics of the compounds of Examples 2, 5 and 25 and BMS-986205 (control) were measured in rats, respectively. The compounds of Examples 2, 5 and 25 and BMS-986205 (control) were each suspended in 0.5% methyl cellulose containing 0.2% Tween 80 and then orally administered to rats at a dose of 10 mg/5 mL/kg. Blood samples were collected from the rat in predetermined times. The concentration of the compound in each sample was analyzed to obtain the blood concentration profiles (FIG. 1).

Data set [2] has as its target T1, IDO1 (Homo sapiens, UniProt P14902). The data set can be described thus: IDO1 cellular activity using Hela cells (IFN-gamma induced IDO expression, kynurenine absorbance at 480 nm). The following applies: IDO induced with interferon gamma 50 ng/ml, 24 h compound incubation, read-out: Inhibitory Activity (IC50). In kind it is cell-based. The method, then: Hela cells were seeded at a density of 20000 cells/well in 100 μl of a culture medium (EMEM supplemented with 10% FBS, penicillin 100 U/ml, and streptomycin 100 μg/ml) in a tissue culture-treated 96 well plate. The cells were cultured in a 5% carbon dioxide incubator for 24 hours, treated with recombinant human interferon gamma at the concentration of 50 ng/ml, and then cultured for 48 hours in a 5% carbon dioxide incubator to induce IDO expression.
The activities were measured using IDO1 cellular activity-measuring substrate (IDO1 cellular activity quickDetect supplements catalog: #62000-2, BPS Bioscience). Specifically, an assay medium was prepared by diluting IDO1 assay medium substrate 1 and IDO1 assay medium supplement 2 in a culture medium at a ratio of 1:100, respectively. The test compounds were diluted to the predetermined concentrations in the fresh assay medium. After removing the culture medium using a multi-pipet, 200 μl of each assay medium containing the test material was added into the respective well, followed by incubating in a 5% carbon dioxide incubator for 24 hours. The next day, 140 μl of culture medium from each well was transferred to a new 96-well plate. 10 μl of 6.1N trichloroacetic acid was added into each well, which was then cultured in a 50° C. incubator for 30 minutes. The plate was centrifuged at 2500 rpm for 10 minutes to settle any sediment. A detection reagent solution was prepared by diluting the detection reagent (component D kit, catalog: #62000-2, BPS Bioscience) 50-fold in acetic acid. 100 μl of the supernatant taken from the centrifuged plate was transferred to a new transparent 96-well plate and then 100 μl of the detection reagent solution was added thereto. After reacting at room temperature for 10 minutes, absorbance was measured at 480 nm wavelength. For analysis of the results, the absorbance (At) of the well containing Hela cells in which IDO protein expression was induced without treatment of an inhibitor was 100%; and the absorbance (Ab) of the well containing Hela cells in which IDO protein expression was not induced was 0. The % absorbance was calculated according to the following equation: % Absorbance=(A−Ab)/(At−Ab), A=absorbance of the well treated with the test compound.
The results obtained by calculating the 50% inhibitory concentration (C50) of each compound, from the absorbance values obtained as described above, are shown in Table 1 below.

The target of data set [3] is T1, IDO1. As to the kind of experiment: IDO1 cellular activity using HEK293 cells transfected with IDO1 expression vector. In kind it is cell-based. Also on record: host or cells: HEK293 cells, transient transfection with Lipofectamine 2000. The following applies: 24 h compound incubation, read-out: Inhibitory Activity (IC50). The gist of the method: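 HEK293 cells transiently transfected with IDO1 expression vector, expressed 24 h, then given compound in substrate-containing assay medium for 24 h. Medium TCA-treated 30 min at 50° C; product detected by absorbance at 480 nm, scaled between untreated IDO1-expressing cells (100%) and non-expressing cells (0).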

The structures appear in SMILES notation.

For orientation: IC50 means the point on the concentration scale where inhibition reaches its midpoint.

T1 sequence (P14902 whole entry): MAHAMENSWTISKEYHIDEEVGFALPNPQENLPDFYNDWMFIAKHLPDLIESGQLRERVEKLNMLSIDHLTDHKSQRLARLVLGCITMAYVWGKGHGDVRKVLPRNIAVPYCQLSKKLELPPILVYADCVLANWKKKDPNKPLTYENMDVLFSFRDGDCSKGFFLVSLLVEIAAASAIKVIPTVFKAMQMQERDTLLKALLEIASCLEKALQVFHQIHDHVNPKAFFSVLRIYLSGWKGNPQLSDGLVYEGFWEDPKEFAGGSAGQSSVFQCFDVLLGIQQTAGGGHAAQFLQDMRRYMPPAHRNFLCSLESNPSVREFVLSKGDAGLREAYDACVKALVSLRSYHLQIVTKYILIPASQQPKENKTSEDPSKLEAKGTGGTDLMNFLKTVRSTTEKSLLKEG

For the molecule `C[C@@H](C(=O)Nc1ccc(Cl)cc1)C1CCC(c2ccnc3ccc(F)cc23)CC1` (some centres unmarked) [BMS-986205, reference compound], in data set [1], the “Area under the curve” value is 3976.7 ng·h/mL, the “Time to maximum plasma concentration” value worked out at 1 h and the Maximum plasma concentration is reported as 656.8 ng/mL.

In the case of `C[C@H](C[C@H]1CC[C@@H](c2ccnc3ccc(F)cc32)CC1)Nc1nc2ccc(Cl)cc2o1` [Example 25, 6-chloro-N-((R)-1-((cis)-4-(6-fluoroquinolin-4-yl)cyclohexyl)propan-2-yl)benzo[d]oxazol-2-amine], in data set [1], the “Area under the curve” value amounted to 16018 ng·h/mL, the “Time to maximum plasma concentration” value came to 2 h and the Maximum plasma concentration was 2170.3 ng/mL. Further, in data set [2], the IC50 came to 4.4 nM. Also, in data set [3], the IC50 was found to be 5.2 nM.

For the molecule `C[C@H](C[C@H]1CC[C@@H](c2ccnc3ccc(F)cc32)CC1)Nc1ncnc2cc(Br)ccc12` [Example 2, 7-bromo-N-((R)-1-((cis)-4-(6-fluoroquinolin-4-yl)cyclohexyl)propan-2-yl)quinazolin-4-amine], in data set [1], the “Area under the curve” value amounted to 108441.1 ng·h/mL, the “Time to maximum plasma concentration” value was found to be 1 h and the Maximum plasma concentration came out at 18050.3 ng/mL. Also, in data set [2], the IC50 amounted to 8.8 nM.

As to `C[C@H](C[C@H]1CC[C@H](c2ccnc3ccc(F)cc32)CC1)Nc1cc(=O)oc2cc(Br)ccc12` [Example 5, 7-bromo-4-(((R)-1-((trans)-4-(6-fluoroquinolin-4-yl)cyclohexyl)propan-2-yl)amino)-2H-chromen-2-one], in data set [1], the “Area under the curve” value came out at 73460.2 ng·h/mL, the “Time to maximum plasma concentration” value turned out to be 4 h and the Maximum plasma concentration stood at 4476.3 ng/mL. Further, in data set [2], the 50% inhibitory concentration (IC50) is 16 nM.

Consider `COc1ccc2nc(N[C@H](C)C[C@H]3CC[C@@H](c4ccnc5ccc(F)cc54)CC3)sc2n1` [Example 22, N-((R)-1-((cis)-4-(6-fluoroquinolin-4-yl)cyclohexyl)propan-2-yl)-5-methoxythiazolo[5,4-b]pyridin-2-amine], for which the IC50 in data set [2] was determined as 16 nM; in data set [3], 10.9 nM.

`C[C@H](C[C@H]1CC[C@@H](c2ccnc3ccc(F)cc32)CC1)Nc1nc2c(F)cccc2o1` [Example 28, 4-fluoro-N-((R)-1-((cis)-4-(6-fluoroquinolin-4-yl)cyclohexyl)propan-2-yl)benzo[d]oxazol-2-amine]: the IC50 came to 12 nM in data set [2] and 8.6 nM in data set [3].
